We go through 2 molecules from US5304125A, “Apparatus for administering solid particulate aerosols to the lungs” (priority 1993, dated 1994).

Structures are written as SMILES. Structures can show the parent of a compound that is named as a salt.

For series [1], the system named is Na^+ transport rates by cystic fibrosis airway epithelia. Briefly: Ussing chamber bioassay of Na+ transport (short circuit current) in freshly excised human cystic fibrosis airway epithelia. Format: cell-based. The text has this:
Freshly excised human cystic fibrosis airway […] used to assay bioactive amiloride in solution. Freshly excised tissues is obtained from the Operating Room at The University of North Carolina Hospitals as previously described. R. Boucher, M. Stutts, M. Knowles, L. Cantley, and J. Gatzy, Na+ transport in cystic fibrosis respiratory epithelia. Abnormal basal rate and response to adenylate cyclase activation. J. Clin. Invest. 78, 1245-1252 (1986). The tissue preparation is mounted in a minature Ussing chamber that has 6 ml of solution bathing each (mucosal; basolateral) surface of the preparation. The solution is a Krebs-Ringer bicarbonate solution which approximates the ionic composition of plasma. This solution is warmed (37°) and circulated with a gas lift (95% oxygen, 5% CO2) system. Mixing time in this chamber has been previously measured by calibration with dyes (blue dextran) and is five seconds or less. The measurement of sodium transport rates is performed using a voltage clamp that is interfaced to the tissue preparation by pairs of potential sensing electrodes and current passing electrodes. The current required to null the transepithelial potential difference to zero is the short circuit current, which in human airway tissue is an accurate index of sodium transport rates. See R. Boucher et al., supra. […] This experiment was conducted as described above. […]

Series [2] is described as follows: Fate/dose of aerosolized amiloride (respirable, oropharyngeal, systemic) from Spinhaler or MDI in throat/Andersen impactor apparatus. The method, then: The present invention was tested using two devices that generate dry particle aerosols, the Spinhaler™ from Fisons, Inc., See Bell, J. Pharm. Sci. 60, 1559 (1971); Cox, Brit. Med. J. 2, 634 (1969), and the metered-dose inhaler (MDI). The Spinhaler™ consists of a rotor that holds a gelatin capsule containing the dry amiloride powder. After the capsule is pierced, the patient inhales through the mouthpiece causing the rotor to spin and vibrate at a high speed, dispensing and dispersing the drug. The MDI consists of a pressurized canister containing the drug, the propellant, and a surfactant. When activated, the MDI spray disperses the drug within large droplets of propellant into a spacer. Evaporation of the propellant and sedimentation of the larger particles yield dry drug that is inhaled by the patient.
(§1) FIG. 6 is a drawing of the experimental apparatus used in these studies. For the Spinhaler™ tests, lactose was used as a flow aid to dispense amiloride from the capsules. Before use, the lactose was not micronized, but was shaken through a 400 mesh sieve so that all lactose particles used were smaller than 37 μm. Amiloride was then mixed with the lactose in a 1:1 ratio and the material was reshaken through the 400 mesh sieve to break apart any agglomerates. Then 58 mg of the resieved mixture of amiloride and lactose was placed in capsule with pre-drilled holes and loaded into the Spinhaler™. Air at 60 liters per minute (Lpm) flowed in succession through the aerosol generator 60 (a Spinhaler™), an impactor 10 as described in connection with FIGS. 1-4 above, a glass "throat" 61, and a plastic "distal pharynx" 62. Within the distal pharynx an isokinetic sample at 28.3 Lpm flowed through a nozzle 63 and into an Andersen impactor 64. The remaining 31.7 Lpm of the original 60 Lpm was drawn off through a bypass line 65 that led to a filter 66, a rotameter 67, and to a vacuum (not illustrated). Gas that left the Andersen impactor flowed through a filter 68 to a second rotameter 69 to vacuum. To conduct a test, vacuum was applied simultaneously to both the Andersen impactor and the bypass lines. Air flow at 60 Lpm was maintained for four seconds to simulate an inspiration; six inspirations were used for each capsule of drug tested.
Amiloride used with the MDI was first milled until essentially all particles were smaller than 2.6 μm in diameter as determined using an optical microscope. This amiloride was then packaged in an MDI with Freon propellants (trichlorofluoromethane and dichlorodifluoromethane) and a surfactant (sorbitan trioleate), added to break up droplets or aggregates of solid particles. A Nebuhaler™ spacer 27 cm long, (see Newman, 39 Thorax 935 (1984)), was attached to the MDI to allow evaporation of the propellant and to remove larger particles by sedimentation. Prior to each release of drug from the MDI, the canister was shaken vigorously to achieve homogeneity. In each test, the MDI aerosol was dispersed into the spacer via a 50 μl metering valve designed to deliver 1 mg amiloride per puff; however, the actual delivery was closer to 3 mg/puff as determined by spectrophotometric analysis of all amiloride collected as discussed below. Leakage of some liquid from the MDI canisters between the filling time and the actual usage would have increased the concentration of amiloride without affecting internal canister pressure. Following the dispersion and a one second delay, vacuum was applied to both the Andersen impactor and bypass lines and maintained for four seconds. This procedure was repeated for a total of six aerosol puffs from the MDI for each test The MDI tests, like the Spinhaler™ tests, used a total flow of 60 Lpm; 28.3 to the Andersen impactor and […] through the bypass line.
Tests were conducted with the MDI and spacer both with and without the impactor. […]

For series [3] the following is noted: in vivo.
Series [4] can be described thus: Aerosol size distribution (Andersen impactor). Format: physicochemical. Conditions: 60 Lpm. The method, then: as §1, with “SpinhalerTM” for “Spinhaler™”, “reshaken” left out, “resieved” left out, “SpinhalerTM.” for “Spinhaler™.”, “SpinhalerTM),” for “Spinhaler™),”, “tested. […] This amiloride was then packaged in an MDI with Freon propellants (trichlorofluoromethane and dichlorodifluoromethane) and a surfactant (sorbitan trioleate), added to break up droplets or aggregates of solid particles. A NebuhalerTM spacer 27 cm long, (see Newman, 39 Thorax 935 (1984)), was attached to the MDI to allow evaporation of the propellant and to remove larger particles by sedimentation. Prior to each release of drug from the MDI, the canister was shaken vigorously to achieve homogeneity. […] Leakage of some liquid from the MDI canisters between the filling time and the actual usage would have increased the concentration of amiloride without affecting internal canister pressure. […] The fractional efficiency of the impactor was determined by comparing the mass of amiloride collected on each stage of the Andersen impactor with and without the impactor in place. […] The components analyzed for amiloride included the SpinhalerTM and its used capsule, the NebuhalerTM spacer when used, the impactor when used, the glass throat, the distal pharynx, and the sidearm filter, plus the entry nozzle, six individual plates, and final filter of the Andersen impactor. Washes from each of these components were then analyzed for amiloride. […]” for “tested.”

The test system of series [5] is cystic fibrosis. As to conditions: liquid aerosol; Knowles, N. Engl. J. Med. (1990); cited from earlier work.
The subject of series [6] is luminal membrane of airway epithelia. Conditions: applied to the luminal membrane of airway epithelia; cited from earlier work.

Turning to `N=C(N)NC(=O)c1nc(Cl)c(N)nc1N` [amiloride hydrochloride], the “time to complete inhibition of ISC (Na^+ transport)” value in series [1] (Krebs-Ringer bicarbonate, 37°, human CF airway epithelia, dry powder particle size about 1 μm) is on record as “about sixty”. Also, the “timed release effect (dissolution of solid particles)” value in series [1] (respirable particles ~1 μm, aqueous solution approximating the ionic strength of plasma) is “dissolved slowly over time”.
As to `N=C(N)NC(=O)c1nc(Cl)c(N)nc1N` [amiloride], in series [2], the “oropharyngeal deposition, fraction of generated amiloride” value was 1.6%; the “systemic dose relative to maximum” value is at most 20 mg/day; the “total systemic daily dose” value is on record as 16.7 mg. In addition, the “oropharyngeal deposition (in words)” value in series [2] (MDI or Spinhaler without spacer or impactor) is “high”. In series [2] (MDI with spacer alone, 12 mg/day respirable), the “systemic dose relative to maximum (in words)” value is “somewhat higher than the maximum”. In addition, in series [2] (Spinhaler alone), the “oropharyngeal dose (in words)” value is “far too high” and the “systemic dose (in words)” value is “excessive”. Also, the “oropharyngeal deposition (in words)” value in series [2] (with spacer or impactor, most particles larger than about 5 μm removed) is “decreases substantially”. In series [3], this molecule displayed a maximum systemic dose of 20 mg daily and an optimal respirable dose of 8 to 12 mg daily. For the same molecule, in series [4] (MDI with spacer and impactor), the “mass median diameter (mmd)” value is “about 3 um”. For the same molecule, in series [4] (MDI with spacer, no impactor), the “mass median diameter (mmd)” value is “about 6 um”. Further, the “mass median diameter (mmd)” value in series [4] (Spinhaler alone) is given as above 10 um. The “mass median diameter (mmd)” value in series [4] (Spinhaler with impactor) is “about 4 um”. In series [5], the clinical benefit result is reported as “confirmed clinical benefit”. In addition, the “inhibition of Na^+ and water absorption” value in series [6] was “inhibit Na^+ and water absorption”.
